Source: patent US6025387A, “Gastroprotective flavone/flavanone compounds with therapeutic effect on inflammatory bowel disease” (Dong a Pharmaceutical Co., Ltd., priority 1996, dated 2000)

Assays:
[1] = target: T1, 5-lipoxygenase (Rattus norvegicus, UniProt P12527); experiment: 5-lipoxygenase activity (LTB4 in A23187-stimulated peritoneal neutrophils); format: cell-based
T1 construct: endogenous in cells; host or cells: casein-elicited rat peritoneal neutrophils
T1 sequence (P12527 1-673): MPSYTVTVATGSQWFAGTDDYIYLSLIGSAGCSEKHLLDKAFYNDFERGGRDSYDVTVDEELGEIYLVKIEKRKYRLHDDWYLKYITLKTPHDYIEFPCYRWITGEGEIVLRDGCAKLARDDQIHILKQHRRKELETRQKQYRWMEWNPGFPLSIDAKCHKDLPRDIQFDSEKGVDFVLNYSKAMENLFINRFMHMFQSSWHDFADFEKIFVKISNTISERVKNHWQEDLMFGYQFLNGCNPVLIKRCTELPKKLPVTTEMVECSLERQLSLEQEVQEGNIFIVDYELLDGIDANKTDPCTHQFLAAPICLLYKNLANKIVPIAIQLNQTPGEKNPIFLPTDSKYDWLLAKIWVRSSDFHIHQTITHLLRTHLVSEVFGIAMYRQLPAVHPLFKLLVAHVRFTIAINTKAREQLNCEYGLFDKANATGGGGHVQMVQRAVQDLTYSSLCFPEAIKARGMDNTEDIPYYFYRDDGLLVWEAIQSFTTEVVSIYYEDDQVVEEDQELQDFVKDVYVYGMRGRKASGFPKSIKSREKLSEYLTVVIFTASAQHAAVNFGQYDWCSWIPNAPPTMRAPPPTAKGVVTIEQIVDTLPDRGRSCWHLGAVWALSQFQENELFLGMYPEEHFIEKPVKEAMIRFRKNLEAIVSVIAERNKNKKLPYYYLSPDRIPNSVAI
Procedure: Measurement of 5-lipooxygenase Activity
Modified Safayhi et al.'s method (Safayhi, H., et al., Biochem. Pharmacol. 1985, 34: 2691) was used to this experiment. Peritoneal neutrophil was separated from the rat which was treated with casein solution. The compound was added to 10^7 cells (5×10^6 cells/mL, 2 mL) of neutrophil after 2 minutes Ca^2+ -ionophore, A23187 (1 μg/mL) was added and the mixture was incubared at 37° C. for 10 minutes. The reaction mixture was centrifuged and the supermatant was taken up. The amount of LTB4 in the supermatant was measured by radioimmunoassay.

[2] = test system: gastric mucosal damage induced by ethanolic HCl; experiment: Gastritis model induced with ethanolic-HCl; format: in vivo, SD male rat; settings: po, 1 h, rat; for inhibition in vivo at 0.3 mg/kg: 0.3 mg/kg p.o.; for inhibition in vivo at 1 mg/kg: 1 mg/kg p.o.; for inhibition in vivo at 3 mg/kg: 3 mg/kg p.o.
Procedure: Effect on the Gastritis Model Induced with Ethanolic-HCl.
SD male rat(250-350 g) was fasted for 24 hours. The compound was orally administered in suspension of 5% HPMC, and after 1 hour 1.5 mL of 150 mM HCl-80% ethanol was orally administered. After 1 hour the rat was sacrifieced and the stomach was extracted and the ulcer index was measured. The ulcer index was shown by the area of hemorrhage lesion(Mizui, T, et al., Jpn. J. Pharmacol. 1983, 33: 939).

[3] = test system: gastric mucus secretion; experiment: Measurement of gastric mucus; format: in vivo, SD male rat; settings: oral, rat
Procedure: Measurement of Gastric Mucus
The compound was orally administered into SD male rat (200~250 g). After 1 hour the stomach was extracted. The extracted stomach was immediately washed with 10 mL of cold 0.25M sucrose solution. The gastric mucosa was dyed with 0.1% alcian blue solution for 2 hours. After dyeing, the gastric mucosa was washed with 0.25M sucrose solution twice for 15 minutes and for 45 minutes. The dyed gastric mucosa was treated with 10 mL of 30% dioctyl sodium sulfosuccinate solution for 2 hours to extract dyed mucus completely and optical density of aqueous phase was measured spectrophotometrically at 655 nm. The amount of mucus in the gastric mucosa was shown as the amount of alcian blue after calibration (Kitagawa, H., et al., Drug Res. 1986, 36: 1240-1244).

[4] = test system: cyclooxygenase; experiment: Cyclooxygenase activity in HUVEC (PGF1 α synthesis); format: cell-based
Procedure: (§1) Measurment of Cyclooxygenase Actvity
(§2) After addition of the compound to cultured HUVEC, the HUVEC was incubated at 37° C., for 30 minutes, then arachidonic acid (final concentration: 30 .rho.M) was added, and the HUVEC was additionally incubated at 37° C. for 15 minutes. The culture medium was taken, and the activity of cyclooxygenase for 6-Keto-PGF1 α or PGE2 was measured by radioimmunoassay (Mitchell, J. A., et al., Pro. Natl. Acad. Sci. USA 1994, 90: 11693-11697).
**SC200 (ug/mL) : Concentration at increasing generation of […]

[5] = test system: TNBS-induced colitis; experiment: TNBS-induced colitis model, intracolonic (rectal) administration; format: in vivo, male SD rats; settings: once a day for 13 days, rat
Procedure: (§3) Experiment on the Model of Inflammatory Bowl Diseases Induced with TNBS
(§4) The modified method of Shibata et al. (Dig. Endosc. 1993, 5: 13) was used. 7 week-aged male SD rats were fasted for a day, and the rats were put under anesthesia and canula (diameter 3 mm) was inserted into the anus to the depth of 8 cm. 25 mg/mL of TNBS (Trinitrobenzene sulfonic acid) dissolved in 50% ethanol solution was injected to each rat and the rats were positioned at feature of tail up for 1 minute. The solution flowing out was removed and the rats were once washed with 1.5 mL of saline solution. After colitis was induced, the compound was administered orally or intracolonically once a day for 13 days. For control, mesalazine (5-amino salicylic acid) was used for oral administration and prednisolone was used for rectal administration. At 14th day of experiment, each group of the rats were put under ether anesthesis, the colon was extracted and the degree of adhesion and extension of the large intestine were measured and their lesion scores were recorded. After 1% formalin solution was injected to the cavity of the extracted colon to inflate, the both ends of it were bonded with each other and it was all-fixed in 1% formalin solution for 2 hours. The all-fixed colon was cut to lengthy direction and washed to remove surrounding fat tissues and connective fissaes. After cecum was removed, the weight of the colon and the rectum was measured, and the area of ulcer lesion, and microscopic lesion were measured to mark scores according to the criterion. And they were fixed in 10% neutral formalin solution, and the tissue examination of lesion site was performed by general method to mark scores according to the criterion.
Macroscopic evaluation: We measured the number and the width of the ulcer and lesion area formed in the large intestine, by using modified Wallace's method (Can. J. Physiol. Pharmacol., 1988, 66: 422). We scored the lesion examined with the naked eye and compared the average value of each group. The standards of lesion scores as criterion of the damage of the colon by Wallace's method is as followings.
(§5) (0: normal, non-damaged, 1: congestion without ulcer 2: congestion and thickening of intestinal wall without ulcer, 3: an ulcer lesion without thickening of intestinal wall, 4: more than two ulcerous/inflammatory lesion, 5: more than two ulcerous/inflammatory lesion or the length of ulcerous/inflammatory lesion is more than 1 cm, 6-10: when the length of lesion is over 2 cm, one point increases everytime 1 cm of the length of ulcerous/inflammatory increases, for example, when the ulcer length is 3 cm, the point is 7.)

[6] = test system: chronic gastritis induced with acetic acid; experiment: Model of chronic gastritis induced with acetic acid; format: in vivo, SD male rat; settings: once a day for 21 days, rat
Procedure: Experiment on the Model of Chronic Gastritis Induced with Acetic Acid
From the next day of the surgical operation, the compound was orally administered once a day for 21 days. After 21 days, the stomach was extracted under ether anesthesis, dipped in 1% formalin solution and the area of gastric lesion was measured. […] An pathological tissue autopsy was carried out for the prepared specimen.

[7] = test system: cyclooxygenase; experiment: Cyclooxygenase activity in HUVEC (PGE2 synthesis); format: cell-based
Procedure: as §1, §2
**SC200 (μg/mL) : Concentration at increasing generation of […]

[8] = test system: TNBS-induced colitis; experiment: TNBS-induced colitis model, oral administration; format: in vivo, male SD rats; settings: for lesion scores: once a day for 13 days, rat; for adhesion degree / dilation and extention degree: score 0-3, rat
Procedure: as §3
as §4, with “7” for “The modified method of Shibata et al. (Dig. Endosc. 1993, 5: 13) was used. 7”
Clinical symptoms: Daily, we observed clinical symptoms and survival of the animals. And we measured the weight of the animals at the beginning day, third and eighth day of the experiment.
(0: non-adhesion, 1: adhesion exists but easily taken off by gloved hand, 2: more severe adhesion than 1 exists but easily taken off by scissors, 3: very severe adhesion exists, so it is difficult to be taken off by scissors because of possibility of its perforation.)
Degree of thickening and extension of the large intestine: We marked scores of the degree of thickness and extension of the large intestine according to the criterion, following the method of Kim et al., and compared with the average value of each group.
(0: lesion site non-existing, 1: a few degree of lesion, 2: intermediate degree of lesion, 3: severe degree of lesion)
We scored the lesion examined with the naked eye and compared the average value of each group. The standards of lesion scores as criterion of the damage of the colon by Wallace's method is as followings.
as §5
Microscopic evaluation: We trimmed the colon giving 3 cm interval from the rectum to the cecum, including the site of lesion examined with the naked eye, to make at least 4 specimens per an individual. […] When the lesion can not be examined with the naked eye, we trimmed the other specimen which has the lesion, with 3 cm interval.

`CCCCCOc1cc2c(=O)cc(-c3ccc(OC)c(OC)c3)oc2cc1OCC(=O)O` [7-carboxymethyloxy-3',4'-dimethoxy-6-n-pentyloxy flavone] showed an IC50 [1] of 2.8 µM.

Work on `COc1ccc(-c2cc(=O)c3c(OC)cc(OCC(=O)O)cc3o2)cc1OC` [7-carboxymethyloxy-3',4',5-trimethoxy flavone] yielded an inhibition in vivo at 0.3 mg/kg [2] of 58%, an inhibition in vivo at 1 mg/kg [2] of 68% and an inhibition in vivo at 3 mg/kg [2] of 85%. For the same compound, the “gastric mucus secretion, % Control” value ([3]; 0.3 mg/kg) was 126.5 % Control, the “gastric mucus secretion, % Control” value ([3]; 3 mg/kg) was 122.8 % Control and the “gastric mucus secretion, % Control” value ([3]; 30 mg/kg) was 117.9 % Control. The “SC200, concentration increasing generation of PGF1α to 200%” value [4] was 14.35 µg/mL and the IC50 [1] was 35.5 µM.

In the case of `CCCCOc1c(OCC(=O)O)cc2oc(-c3ccc(OC)c(OC)c3)cc(=O)c2c1O` [7-carboxymethyloxy-5-hydroxy-6-n-butyloxy-3',4'-dimethoxy flavone], the inhibition in vivo at 0.1 mg/kg ([2]; 0.1 mg/kg p.o.) is reported as 43%, the inhibition in vivo at 1 mg/kg [2] is reported as 61% and the inhibition in vivo at 10 mg/kg ([2]; 10 mg/kg p.o.) is reported as 63%. For the same compound, the “SC200, concentration increasing generation of PGF1α to 200%” value [4] was 2.41 µg/mL and the IC50 [1] was 26.3 µM.

`C[C@]12C=CC(=O)C=C1CC[C@@H]1[C@@H]2[C@@H](O)C[C@@]2(C)[C@H]1CC[C@]2(O)C(=O)CO` [prednisolone, reference compound] was tested, and the lesion scores ([5]; 1 mg/kg rectally) was 0.83.

In the case of `COc1ccc(-c2cc(=O)c3c(OC)cc(OCC(=O)[O-])cc3o2)cc1OC.[Na+]` [7-carboxymethyloxy-3',4',5-trimethoxy flavone sodium salt], the “inhibiting% (gastric lesion)” value ([6]; 0.3 mg/kg p.o.) is reported as 4%, the “inhibiting% (gastric lesion)” value ([6]; 3 mg/kg p.o.) is reported as 83% and the “inhibiting% (gastric lesion)” value ([6]; 10 mg/kg p.o.) is reported as 80%. For the same compound, the lesion scores ([5]; 0.3 mg/kg rectally) was 4.43 and the lesion scores ([5]; 3 mg/kg rectally) was 0.86.

Compound `COc1ccc(C2CC(=O)c3c(cc(O)c(OC)c3O)O2)cc1OC` (stereo not drawn) [5,7-dihydroxy-3',4',6-trimethoxy flavanone] has an inhibition in vivo at 0.3 mg/kg [2] of 5%, an inhibition in vivo at 1 mg/kg [2] of 49% and an inhibition in vivo at 3 mg/kg [2] of 56%. For the same compound, the “SC200, concentration increasing generation of PGF1α to 200%” value [4] was 34.6 µg/mL and the “SC200, concentration increasing generation of PGE2 to 200%” value [7] was 3.9 µg/mL.

With `COc1ccc(-c2cc(=O)c3c(OC)c(OC)c(OCC(=O)[O-])cc3o2)cc1OC.[Na+]` [7-carboxymethyloxy-3',4',5,6-tetramethoxy flavone sodium salt] the “inhibiting% (gastric lesion)” value ([6]; 0.3 mg/kg p.o.) was 10%, the “inhibiting% (gastric lesion)” value ([6]; 3 mg/kg p.o.) was 29% and the “inhibiting% (gastric lesion)” value ([6]; 10 mg/kg p.o.) was 42%. The lesion scores ([8]; 1 mg/kg p.o.) was 1.3, the adhesion degree ([8]; 1 mg/kg p.o.) was 0.5 and the “dilation and extention degree” value ([8]; 1 mg/kg p.o.) was 0.3. For the same compound, the lesion scores ([8]; 10 mg/kg p.o.) was 0.8, the adhesion degree ([8]; 10 mg/kg p.o.) was 0.6 and the “dilation and extention degree” value ([8]; 10 mg/kg p.o.) was 0.4. The lesion scores ([5]; 0.3 mg/kg rectally) was 2.56 and the lesion scores ([5]; 3 mg/kg rectally) was 2.60.
